# According to US20220389230A1, “BLAST FURNACE SLAG-TYPE PAINT” (FUKKO CO., LTD., priority 2019, published 2022):
# Where two headings read alike, the source gives them in different places.
# Legend:
# [1] = Table 2; cited from earlier work
# [2] = Corrosiveness of alkaline substances to aluminum, change in appearance after 24 hours
# Method: For comparison with the aqueous solution shown in Table 3, a slurry liquid obtained by adding 10 parts by weight of water to 20 parts by weight of ordinary Portland cement was allowed to contact with an aluminum plate (A1050) not subjected to the surface treatment and an aluminum sash frame coated with a sulfuric acid anodized film at the spot, and a change in the appearance after 24 hours was observed.
# [3] = Confirmation of safety: presence or absence of danger (Table 2)
# Method: The presence or absence of danger was evaluated based on the concentration adjustment work in Table 1 and whether or not it was subject to legal regulations.
# [4] = pH and heat of dissolution of aqueous solutions that may give an alkaline stimulus (Table 1)
SMILES,Existance of legal regulation [1],pH of aqueous solution [2],Judging danger to human body [3],odor [3],Generation of heat of dissolution [4],"Generation of heat of dissolution ([4]; Table 1, concentration adjustment of the aqueous solution)"
[Ca+2].[OH-].[OH-] [Calcium hydroxide],No regulation,12,The risk is small,Odorless,–,–
O=C([O-])[O-].[K+].[K+] [Potassium carbonate],No regulation,11,The risk is small,Odorless,Medium,–
O=C([O-])[O-].[Na+].[Na+] [sodium carbonate],No regulation,12,The risk is small,Odorless,Medium,–
N [ammonia],Drastic medicine,–,Very dangerous,Pungent,–,–
[Na+].[OH-] [Sodium hydroxide],Drastic medicine,–,–,–,–,Large
[K+].[OH-] [Potassium hydroxide],Drastic medicine,15,Very dangerous,Odorless,Large,–
O=C([O-])CC(O)(CC(=O)[O-])C(=O)[O-].[Na+].[Na+].[Na+] [Sodium citrate],No regulation,–,The risk is small,Odorless,–,–
